The values below are quoted from earlier work in US20230364242A1, “WATER-SOLUBLE COMPLEX CONTAINING BETA BLOCKER AND LECITHIN” (NISSAN CHEMICAL CORPORATION, priority 2020, published 2023).

For this series the following is noted: literature reports.

In the case of `CC(C)NCC(O)COc1cccc2ccccc12` (stereo not shown) [propranolol], the photolysis result is “decomposition particularly proceeds in an aqueous solution”.
